Measured values from article PMC7181660, “A novel specific PERK activator reduces toxicity and extends survival in Huntington's disease models” (Scientific Reports, 2020).

What was measured:
Assay in all cases: biochemical
Type in all cases: biochemical
panel of 391 kinases [1] = target: panel of 391 kinases (Homo sapiens, UniProt P43405); settings: SYK, MK-28 1 µM, ATP 1 µM
panel of 391 kinases [2] = target: panel of 391 kinases (Homo sapiens, UniProt P07332); settings: FES/FPS, MK-28 1 µM, ATP 1 µM
panel of 391 kinases [3] = target: panel of 391 kinases (Homo sapiens, UniProt Q8IYT8); settings: ULK2, MK-28 1 µM, ATP 1 µM
panel of 391 kinases [4] = target: panel of 391 kinases (Homo sapiens, UniProt Q02750); settings: MEK1, MK-28 1 µM, ATP 1 µM
panel of 391 kinases [5] = target: panel of 391 kinases (Homo sapiens, UniProt P06241); settings: FYN, MK-28 1 µM, ATP 1 µM
panel of 391 kinases [6] = target: panel of 391 kinases (Homo sapiens, UniProt P10721); settings: c-Kit, MK-28 1 µM, ATP 1 µM
panel of 391 kinases [7] = target: panel of 391 kinases (Homo sapiens, UniProt P22607); settings: FGFR3, MK-28 1 µM, ATP 1 µM
panel of 391 kinases [8] = target: panel of 391 kinases (Homo sapiens, UniProt Q13555); settings: CAMK2g, MK-28 1 µM, ATP 1 µM
panel of 391 kinases [9] = target: panel of 391 kinases (Homo sapiens, UniProt Q9NY57); settings: STK32B/YANK2, MK-28 1 µM, ATP 1 µM
panel of 391 kinases [10] = target: panel of 391 kinases (Homo sapiens, UniProt Q13882); settings: BRK, MK-28 1 µM, ATP 1 µM
panel of 391 kinases [11] = target: panel of 391 kinases (Homo sapiens, UniProt O14578); settings: STK21/CIT, MK-28 1 µM, ATP 1 µM
panel of 391 kinases [12] = target: panel of 391 kinases (Homo sapiens, UniProt P51957); settings: NEK4, MK-28 1 µM, ATP 1 µM
panel of 391 kinases [13] = target: panel of 391 kinases (Homo sapiens, UniProt Q9H3Y6); settings: SRMS, MK-28 1 µM, ATP 1 µM
panel of 391 kinases [14] = target: panel of 391 kinases (Homo sapiens, UniProt P51451); settings: BLK, MK-28 1 µM, ATP 1 µM
panel of 391 kinases [15] = target: panel of 391 kinases (Homo sapiens, UniProt Q9UQM7); settings: CAMK2a, MK-28 1 µM, ATP 1 µM
panel of 391 kinases [16] = target: panel of 391 kinases (Homo sapiens, UniProt P05129); settings: PKCg, MK-28 1 µM, ATP 1 µM
panel of 391 kinases [17] = target: panel of 391 kinases (Homo sapiens, UniProt Q9HBH9); settings: MNK2, MK-28 1 µM, ATP 1 µM
panel of 391 kinases [18] = target: panel of 391 kinases (Homo sapiens, UniProt P22612); settings: PKAcg, MK-28 1 µM, ATP 1 µM
panel of 391 kinases [19] = target: panel of 391 kinases (Homo sapiens, UniProt Q6P2M8); settings: CAMK1b, MK-28 1 µM, ATP 1 µM
panel of 391 kinases [20] = target: panel of 391 kinases (Homo sapiens, UniProt P27448); settings: MARK3, MK-28 1 µM, ATP 1 µM
panel of 391 kinases [21] = target: panel of 391 kinases (Homo sapiens, UniProt P54764); settings: EPHA4, MK-28 1 µM, ATP 1 µM
panel of 391 kinases [22] = target: panel of 391 kinases (Homo sapiens, UniProt O14757); settings: CHK1, MK-28 1 µM, ATP 1 µM
panel of 391 kinases [23] = target: panel of 391 kinases (Homo sapiens, UniProt Q15208); settings: STK38/NDR1, MK-28 1 µM, ATP 1 µM
panel of 391 kinases [24] = target: panel of 391 kinases (Homo sapiens, UniProt O43781); settings: DYRK3, MK-28 1 µM, ATP 1 µM
panel of 391 kinases [25] = target: panel of 391 kinases (Homo sapiens, UniProt P08631); settings: HCK, MK-28 1 µM, ATP 1 µM
panel of 391 kinases [26] = target: panel of 391 kinases (Homo sapiens, UniProt Q5TCX8); settings: MLK4, MK-28 1 µM, ATP 1 µM
panel of 391 kinases [27] = target: panel of 391 kinases (Homo sapiens, UniProt P24723); settings: PKCeta, MK-28 1 µM, ATP 1 µM
[28] = read-out: % Enzyme Activity (relative to DMSO controls)

SMILES: CN(/N=C\c1ccc(O)c(O)c1)c1nc(-c2ccccc2)cc(-c2ccccc2)n1 [MK-28]
- % Enzyme Activity (relative to DMSO controls) (panel of 391 kinases [1]): 91.75%
- remaining activity at 1 µM (panel of 391 kinases [1]; [28]): 93%
- % Enzyme Activity (relative to DMSO controls) (panel of 391 kinases [2]): 91.44%
- remaining activity at 1 µM (panel of 391 kinases [2]; [28]): 95.1%
- % Enzyme Activity (relative to DMSO controls) (panel of 391 kinases [3]): 98.62%
- remaining activity at 1 µM (panel of 391 kinases [3]; [28]): 102%
- % Enzyme Activity (relative to DMSO controls) (panel of 391 kinases [4]): 99.18%
- remaining activity at 1 µM (panel of 391 kinases [4]; [28]): 100%
- % Enzyme Activity (relative to DMSO controls) (panel of 391 kinases [5]): 103.36%
- remaining activity at 1 µM (panel of 391 kinases [5]; [28]): 103%
- % Enzyme Activity (relative to DMSO controls) (panel of 391 kinases [6]): 93.67%
- remaining activity at 1 µM (panel of 391 kinases [6]; [28]): 93.8%
- % Enzyme Activity (relative to DMSO controls) (panel of 391 kinases [7]): 103.07%
- remaining activity at 1 µM (panel of 391 kinases [7]; [28]): 103%
- % Enzyme Activity (relative to DMSO controls) (panel of 391 kinases [8]): 86.57%
- remaining activity at 1 µM (panel of 391 kinases [8]; [28]): 87.8%
- % Enzyme Activity (relative to DMSO controls) (panel of 391 kinases [9]): 100.71%
- remaining activity at 1 µM (panel of 391 kinases [9]; [28]): 101%
- % Enzyme Activity (relative to DMSO controls) (panel of 391 kinases [10]): 102.30%
- remaining activity at 1 µM (panel of 391 kinases [10]; [28]): 104%
- % Enzyme Activity (relative to DMSO controls) (panel of 391 kinases [11]): 95.45%
- remaining activity at 1 µM (panel of 391 kinases [11]; [28]): 97.6%
- % Enzyme Activity (relative to DMSO controls) (panel of 391 kinases [12]): 89.27%
- remaining activity at 1 µM (panel of 391 kinases [12]; [28]): 91.6%
- % Enzyme Activity (relative to DMSO controls) (panel of 391 kinases [13]): 102.96%
- remaining activity at 1 µM (panel of 391 kinases [13]; [28]): 104%
- % Enzyme Activity (relative to DMSO controls) (panel of 391 kinases [14]): 82.35%
- remaining activity at 1 µM (panel of 391 kinases [14]; [28]): 85.3%
- % Enzyme Activity (relative to DMSO controls) (panel of 391 kinases [15]): 100.97%
- remaining activity at 1 µM (panel of 391 kinases [15]; [28]): 103%
- % Enzyme Activity (relative to DMSO controls) (panel of 391 kinases [16]): 101.88%
- remaining activity at 1 µM (panel of 391 kinases [16]; [28]): 104%
- % Enzyme Activity (relative to DMSO controls) (panel of 391 kinases [17]): 105.57%
- remaining activity at 1 µM (panel of 391 kinases [17]; [28]): 114%
- % Enzyme Activity (relative to DMSO controls) (panel of 391 kinases [18]): 92.94%
- remaining activity at 1 µM (panel of 391 kinases [18]; [28]): 93.5%
- % Enzyme Activity (relative to DMSO controls) (panel of 391 kinases [19]): 94.89%
- remaining activity at 1 µM (panel of 391 kinases [19]; [28]): 96.9%
- % Enzyme Activity (relative to DMSO controls) (panel of 391 kinases [20]): 98.84%
- remaining activity at 1 µM (panel of 391 kinases [20]; [28]): 99%
- % Enzyme Activity (relative to DMSO controls) (panel of 391 kinases [21]): 100.54%
- remaining activity at 1 µM (panel of 391 kinases [21]; [28]): 101%
- % Enzyme Activity (relative to DMSO controls) (panel of 391 kinases [22]): 141.74%
- remaining activity at 1 µM (panel of 391 kinases [22]; [28]): 150%
- % Enzyme Activity (relative to DMSO controls) (panel of 391 kinases [23]): 95.54%
- remaining activity at 1 µM (panel of 391 kinases [23]; [28]): 96.8%
- % Enzyme Activity (relative to DMSO controls) (panel of 391 kinases [24]): 96.41%
- remaining activity at 1 µM (panel of 391 kinases [24]; [28]): 97.5%
- % Enzyme Activity (relative to DMSO controls) (panel of 391 kinases [25]): 73.97%
- remaining activity at 1 µM (panel of 391 kinases [25]; [28]): 75.6%
- % Enzyme Activity (relative to DMSO controls) (panel of 391 kinases [26]): 96.53%
- remaining activity at 1 µM (panel of 391 kinases [26]; [28]): 97.1%
- % Enzyme Activity (relative to DMSO controls) (panel of 391 kinases [27]): 98.39%
- remaining activity at 1 µM (panel of 391 kinases [27]; [28]): 101%
